SMILES strings stand for the structures.

This experiment addresses T1, PLK1 (Homo sapiens, UniProt P53350).
T1 construct: Full-length, active GST-PLK1 is purified from Sf9 insect cells; made in house; host or cells: Sf9 insect cells
Description: Biochemical Characterization Assay: HTRF kinase assay, GST-PLK1 phosphorylation of GST-p53. To be noted: GST-PLK1, GST-p53 substrate. The essentials:
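Full-length active GST-PLK1 (Sf9, 3 ug/mL) phosphorylated full-length GST-p53 (E. coli) in Kinase Assay Buffer for 35 min at 37 °C. Stopped with EDTA; phospho-p53 detected by HTRF with anti-phospho-p53, Eu-anti-rabbit and APC-anti-GST antibodies.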
(In general: In TR-FRET formats the signal depends on donor and acceptor labels being close together.)

T1 sequence (P53350 whole entry): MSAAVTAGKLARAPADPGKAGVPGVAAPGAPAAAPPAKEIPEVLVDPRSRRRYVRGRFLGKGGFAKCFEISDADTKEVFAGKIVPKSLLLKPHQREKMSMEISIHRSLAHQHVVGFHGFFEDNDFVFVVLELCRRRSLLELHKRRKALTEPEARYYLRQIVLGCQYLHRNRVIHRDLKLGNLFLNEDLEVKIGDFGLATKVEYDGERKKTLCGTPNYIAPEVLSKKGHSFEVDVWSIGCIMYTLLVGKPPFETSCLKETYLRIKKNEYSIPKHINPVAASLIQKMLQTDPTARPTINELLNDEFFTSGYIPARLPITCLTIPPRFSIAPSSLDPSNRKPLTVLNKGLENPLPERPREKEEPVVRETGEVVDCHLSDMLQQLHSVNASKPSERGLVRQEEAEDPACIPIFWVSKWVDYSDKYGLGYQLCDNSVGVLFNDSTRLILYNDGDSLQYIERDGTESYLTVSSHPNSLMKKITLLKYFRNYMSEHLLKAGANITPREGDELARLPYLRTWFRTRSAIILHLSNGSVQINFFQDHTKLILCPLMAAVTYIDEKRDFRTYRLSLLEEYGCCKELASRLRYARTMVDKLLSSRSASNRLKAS

As for `CN1CCC(NC(=O)c2ccc(Nc3ncc4c(n3)N(C3CCCC3)CC(F)(F)C(=O)N4C)c(Cl)c2)CC1` [Example I-179, 3-chloro-4-(9-cyclopentyl-7,7-difluoro-5-methyl-6-oxo-6,7,8,9-tetrahydro-5H-pyrimido[4,5-b][1,4]diazepin-2-ylamino)-N-(1-methyl-piperidin-4-yl)-benzamide], the IC50 (commonly the concentration that inhibits the measured activity by half) was in the range of 1 to 50 nM.
The compound `COc1cc(C(=O)NCc2ccsc2)ccc1Nc1ncc2c(n1)N(C1CCCC1)CC(F)(F)C(=O)N2C` [Example I-33, 4-(9-cyclopentyl-7,7-difluoro-5-methyl-6-oxo-6,7,8,9-tetrahydro-5H-pyrimido[4,5-b][1,4]diazepin-2-ylamino)-3-methoxy-N-thiophen-3-ylmethyl-benzamide] gave an IC50 (ATP) of 51 to 500 nM.
`COc1cc(C(N)=O)ccc1Nc1ncc2c(n1)N(C(C)C)CC(F)(F)C(=O)N2C` [Example I-294, 4-(7,7-difluoro-9-isopropyl-5-methyl-6-oxo-6,7,8,9-tetrahydro-5H-pyrimido[4,5-b][1,4]diazepin-2-ylamino)-3-methoxy-benzamide] yielded a half-inhibitory concentration (IC50) of 1 to 50 nM.
Compound `COc1cc(C(=O)NC2CC2)ccc1Nc1ncc2c(n1)N(C1CCCC1)CC(F)(F)C(=O)N2C` [Example I-26, 4-(9-cyclopentyl-7,7-difluoro-5-methyl-6-oxo-6,7,8,9-tetrahydro-5H-pyrimido[4,5-b][1,4]diazepin-2-ylamino)-N-cyclopropyl-3-methoxy-benzamide] had an IC50 (ATP) of 1 to 50 nM.
As to `COc1cc(C(=O)NC2CCN(S(C)(=O)=O)CC2)ccc1Nc1ncc2c(n1)N(C1CCCCC1)CC(F)(F)C(=O)N2C` [Example I-268, 4-(9-cyclohexyl-7,7-difluoro-5-methyl-6-oxo-6,7,8,9-tetrahydro-5H-pyrimido[4,5-b][1,4]diazepin-2-ylamino)-N-(1-methanesulfonyl-piperidin-4-yl)-3-methoxy-benzamide], the 50% inhibitory concentration (IC50) is 51 to 500 nM.
In turn, `COc1cc(C(=O)NCc2ccccn2)ccc1Nc1ncc2c(n1)N(C1CCCC1)CC(F)(F)C(=O)N2C` [Example I-109, 4-(9-cyclopentyl-7,7-difluoro-5-methyl-6-oxo-6,7,8,9-tetrahydro-5H-pyrimido[4,5-b][1,4]diazepin-2-ylamino)-3-methoxy-N-pyridin-2-ylmethyl-benzamide] displayed a 50% inhibitory concentration (IC50) (ATP) of 1 to 50 nM.
With `COc1cc(C(=O)N[C@H]2CC[C@@H](N3CCN(CC4CC4)CC3)CC2)ccc1Nc1ncc2c(n1)N(C1CCCC1)CC(F)(F)C(=O)N2C` [Example I-299, 4-(9-cyclopentyl-7,7-difluoro-5-methyl-6-oxo-6,7,8,9-tetrahydro-5H-pyrimido[4,5-b][1,4]diazepin-2-ylamino)-N-[cis-4-(4-cyclopropylmethyl-piperazin-1-yl)-cyclohexyl]-3-methoxy-benzamide], the IC50 was 1 to 50 nM.
Same read-out and setting: the same measure for `Cc1cc(C(=O)NCCN(C)C)ccc1Nc1ncc2c(n1)N(C1CCCC1)CC(F)(F)C(=O)N2C` [Example I-188, 4-(9-cyclopentyl-7,7-difluoro-5-methyl-6-oxo-6,7,8,9-tetrahydro-5H-pyrimido[4,5-b][1,4]diazepin-2-ylamino)-N-(2-dimethylamino-ethyl)-3-methyl-benzamide]: 1 to 50 nM; for `COc1cc(C(=O)NCCN(C)C)c(F)cc1Nc1ncc2c(n1)N(C1CCCC1)CC(F)(F)C(=O)N2C` [Example I-174, 4-(9-cyclopentyl-7,7-difluoro-5-methyl-6-oxo-6,7,8,9-tetra-hydro-5H-pyrimido[4,5-b][1,4]diazepin-2-ylamino)-N-(3-dimethylamino-ethyl)-2-fluoro-5-methoxy-benzamide]: 1 to 50 nM; for `CCOc1cc(C(=O)NC)ccc1Nc1ncc2c(n1)N(C1CCCC1)CC(F)(F)C(=O)N2C` [Example I-220, 4-(9-cyclopentyl-7,7-difluoro-5-methyl-6-oxo-6,7,8,9-tetrahydro-5H-pyrimido[4,5-b][1,4]diazepin-2-ylamino)-3-ethoxy-N-methyl-benzamide]: 1 to 50 nM.
`COc1cc(C(=O)NC2CCNCC2)ccc1Nc1ncc2c(n1)N(C1CCCC1)CC(F)(F)C(=O)N2C` [Example I-72, 4-(9-cyclopentyl-7,7-difluoro-5-methyl-6-oxo-6,7,8,9-tetrahydro-5H-pyrimido[4,5-b][1,4]diazepin-2-ylamino)-3-methoxy-N-piperidin-4-yl-benzamide]: the half-inhibitory concentration (IC50) (ATP) is 1 to 50 nM.
`CNC(=O)c1ccc(Nc2ncc3c(n2)N(CCCc2ccccc2)CC(F)(F)C(=O)N3C)c(OC)c1` [Example I-284, 4-[7,7-difluoro-5-methyl-6-oxo-9-(3-phenyl-propyl)-6,7,8,9-tetrahydro-5H-pyrimido[4,5-b][1,4]diazepin-2-ylamino]-3-methoxy-N-methyl-benzamide] yielded an IC50 of 51 to 500 nM.
Take `CCN1C(=O)C(F)(F)CN(C2CCCC2)c2nc(Nc3ccc(C(N)=O)cc3OC)ncc21` [Example I-157, 4-(9-cyclopentyl-5-ethyl-7,7-difluoro-6-oxo-6,7,8,9-tetrahydro-5H-pyrimido[4,5-b][1,4]diazepin-2-yl-amino)-3-methoxy-benzamide]: the IC50 (ATP) was 500 to 5000 nM.
Take `CCN1C(=O)C(F)(F)CN(C2CCCC2)c2nc(Nc3ccc(C(N)=O)cc3)ncc21` [Example I-139, 4-(9-cyclopentyl-5-ethyl-7,7-difluoro-6-oxo-6,7,8,9-tetrahydro-5H-pyrimido[4,5-b][1,4]diazepin-2-ylamino)-benzamide]: the IC50 (ATP) fell in the range of 500 to 5000 nM.
In the case of `COc1cc(C(=O)NC2CCN(C3CCCC3)CC2)ccc1Nc1ncc2c(n1)N(C1CCCC1)CC(F)(F)C(=O)N2C` [Example I-63, 4-(9-cyclopentyl-7,7-difluoro-5-methyl-6-oxo-6,7,8,9-tetrahydro-5H-pyrimido[4,5-b][1,4]diazepin-2-ylamino)-N-(1-cyclopentyl-piperidin-4-yl)-3-methoxy-benzamide], the IC50 (ATP) lay in the range of 1 to 50 nM.
For the compound `Cc1cc(C(=O)NC2CCNCC2)ccc1Nc1ncc2c(n1)N(C1CCCC1)CC(F)(F)C(=O)N2C` [Example I-192, 4-(9-cyclopentyl-7,7-difluoro-5-methyl-6-oxo-6,7,8,9-tetrahydro-5H-pyrimido[4,5-b][1,4]diazepin-2-ylamino)-3-methyl-N-piperidin-4-yl-benzamide], the IC50 lay in the range of 1 to 50 nM.
Turning to `COc1cc(C(=O)NCCCO)ccc1Nc1ncc2c(n1)N(C1CCCC1)CC(F)(F)C(=O)N2C` [Example I-41, 4-(9-cyclopentyl-7,7-difluoro-5-methyl-6-oxo-6,7,8,9-tetrahydro-5H-pyrimido[4,5-b][1,4]diazepin-2-ylamino)-N-(3-hydroxy-propyl)-3-methoxy-benzamide], the IC50 (ATP) was 1 to 50 nM.
`COc1cc(C(=O)N[C@H]2CC[C@@H](NC(=O)OC(C)(C)C)CC2)ccc1Nc1ncc2c(n1)N(C1CCCC1)CC(F)(F)C(=O)N2C` [Example I-97, cis-{4-[4-(9-cyclopentyl-7,7-difluoro-5-methyl-6-oxo-6,7,8,9-tetrahydro-5H-pyrimido[4,5-b][1,4]diazepin-2-ylamino)-3-methoxy-benzoylamino]-cyclohexyl}-carbamic acid tert-butyl ester] had an IC50 (ATP) of 51 to 500 nM.
Compound `COc1cc(C(=O)NC2CCOCC2)ccc1Nc1ncc2c(n1)N(C1CCCC1)CC(F)(F)C(=O)N2C` [Example I-124] yielded a 50% inhibitory concentration (IC50) (ATP) of 1 to 50 nM.
Consider `CCN1CCC(NC(=O)c2ccc(Nc3ncc4c(n3)N(C3CCCC3)CC(F)(F)C(=O)N4C)c(C(F)(F)F)c2)CC1` [Example I-206, 4-(9-cyclopentyl-7,7-difluoro-5-methyl-6-oxo-6,7,8,9-tetrahydro-5H-pyrimido[4,5-b][1,4]diazepin-2-ylamino)-N-(1-ethyl-piperidin-4-yl)-3-trifluoromethyl-benzamide], for which the concentration for half-maximal inhibition (IC50) is 1 to 50 nM.
`COc1cc(C(=O)NC(C)C)ccc1Nc1ncc2c(n1)N(C1CCCC1)CC(F)(F)C(=O)N2C` [Example I-25, 4-(9-cyclopentyl-7,7-difluoro-5-methyl-6-oxo-6,7,8,9-tetrahydro-5H-pyrimido[4,5-b][1,4]diazepin-2-ylamino)-N-isopropyl-3-methoxy-benzamide] showed a half-inhibitory concentration (IC50) (ATP) of 1 to 50 nM.
Compound `COc1cc(C(=O)NCCO)ccc1Nc1ncc2c(n1)N(C1CCCC1)CC(F)(F)C(=O)N2C` [Example I-30, 4-(9-cyclopentyl-7,7-difluoro-5-methyl-6-oxo-6,7,8,9-tetrahydro-5H-pyrimido[4,5-b][1,4]diazepin-2-ylamino)-N-(2-hydroxy-ethyl)-3-methoxy-benzamide] had a half-inhibitory concentration (IC50) (ATP) of 1 to 50 nM.
With `CN1CCC(NC(=O)c2ccc(Nc3ncc4c(n3)N(C3CCCCC3)CC(F)(F)C(=O)N4C)cc2)CC1` [Example I-262, 4-(9-cyclohexyl-7,7-difluoro-5-methyl-6-oxo-6,7,8,9-tetrahydro-5H-pyrimido[4,5-b][1,4]diazepin-2-ylamino)-N-(1-methyl-piperidin-4-yl)-benzamide], the half-inhibitory concentration (IC50) lay in the range of 1 to 50 nM.
Take `COCCCNC(=O)c1ccc(Nc2ncc3c(n2)N(C2CCCC2)CC(F)(F)C(=O)N3C)c(OC)c1` [Example I-29, 4-(9-cyclopentyl-7,7-difluoro-5-methyl-6-oxo-6,7,8,9-tetrahydro-5H-pyrimido[4,5-b][1,4]diazepin-2-ylamino)-3-methoxy-N-(3-methoxy-propyl)-benzamide]: where the note is “ATP”, the IC50 was in the range of 1 to 50 nM.
For `COc1cc(C(=O)N[C@H]2CC[C@H](N3CCN(CC4CC4)CC3)CC2)ccc1Nc1ncc2c(n1)N(C1CCCC1)CC(F)(F)C(=O)N2C` [Example I-300, 4-(9-cyclopentyl-7,7-difluoro-5-methyl-6-oxo-6,7,8,9-tetrahydro-5H-pyrimido[4,5-b][1,4]diazepin-2-ylamino)-N-[trans-4-(4-cyclopropylmethyl-piperazin-1-yl)-cyclohexyl]-3-methoxy-benzamide], the concentration for half-maximal inhibition (IC50) was 1 to 50 nM.
In turn, `COc1cc(C(=O)NC2CCOCC2)ccc1Nc1ncc2c(n1)N(C1CCCCC1)CC(F)(F)C(=O)N2C` [Example I-252, 4-(9-cyclohexyl-7,7-difluoro-5-methyl-6-oxo-6,7,8,9-tetrahydro-5H-pyrimido[4,5-b][1,4]diazepin-2-ylamino)-3-methoxy-N-(tetrahydro-pyran-4-yl)-benzamide] registered an IC50 of 1 to 50 nM.
